The text below walks through data of PMC11393453, “Phosphorylation of tau at a single residue inhibits binding to the E3 ubiquitin ligase, CHIP” (Nature Communications, 2024).

Where a chain is given by its changes, count along the chain named. In names and notes the source's numbering stands. Where two headings read alike, the source gives them in different places.

The target in experiment [1] is CHIP. The experiment in a line: CHIP-tau binding ELISA (tau proteoforms on immobilized CHIP). For orientation: An ELISA detects its analyte on a solid surface through an enzyme-linked reagent.
For experiment [2], the system named is CHIP. The settings on record: cited from earlier work. From the text:
Moreover, the appearance of pS416 and tauC3 are coincident in AD patient samples (see Fig. 5), supporting a putative role of these PTMs in tau proteostasis. Based on these collective findings and in concert with observations from the literature, we propose a model to explain the hierarchy of these tau PTMs (Fig. 6D). In this speculative model, FL tau can either be phosphorylated by MARK2 or CaMKII ...

For another experiment, the target named is T1, CHIP D134A (human, UniProt Q9UNE7 1-303, D134A).
T1 construct: CHIP (STUB1) with Asp134 mutated to alanine; also called D134A CHIP
T1 sequence (looked up): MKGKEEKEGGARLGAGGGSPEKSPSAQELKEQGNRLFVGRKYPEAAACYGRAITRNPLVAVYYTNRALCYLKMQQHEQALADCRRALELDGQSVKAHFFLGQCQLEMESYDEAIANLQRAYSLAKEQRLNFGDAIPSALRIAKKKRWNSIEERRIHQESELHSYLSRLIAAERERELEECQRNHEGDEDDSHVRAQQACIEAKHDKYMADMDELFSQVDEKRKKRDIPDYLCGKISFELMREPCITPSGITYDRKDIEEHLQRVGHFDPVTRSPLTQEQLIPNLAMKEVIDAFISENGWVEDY
Description: differential scanning fluorimetry; 5 µM CHIP, 5x Sypro Orange, varying concentrations of peptide in 25 mM HEPES pH 7.4, 50 mM KCl, 1 mM TCEP, 0.2% CHAPS, 1% DMSO; apparent melting temperature (Tmapp) of CHIP. The settings on record: both partners purified.

The target of a further experiment is T2, CHIP F131A (human, UniProt Q9UNE7 1-303, F131A).
T2 construct: CHIP (STUB1) with Phe131 mutated to alanine
T2 sequence (looked up): T1 sequence (looked up) with F131A, A134D
The description is as above. The settings on record: both partners purified.

The target of experiment [3] is T3, CHIP (C-terminus of Hsc70 interacting protein; STUB1), recombinant human, full-length (human, UniProt Q9UNE7 1-303).
T3 construct: CHIP (STUB1), human, E3 ubiquitin ligase; Used in ELISA, DSF and FP; the FP legends speak of the CHIP TPR domain, the FP methods only of CHIP; also called WT CHIP; source: E. coli BL21DE3, purified (Ni-NTA, TEV cleavage, SEC); not shown: His6, N-terminal, cleaved
T3 sequence (looked up): T1 sequence (looked up) with A134D
Description: fluorescence polarisation; competition: CHIP 1.58 µM + fluorescent tracer 20 nM, peptide competitor in three-fold dilutions, 25 mM HEPES pH 7.4, 50 mM KCl, 0.01% Triton X-100, DMSO; Ki calculated from IC50. As to conditions: both partners purified.

Take “p.tau: full length phosphorylated tau produced in Sf9 insect cells”: the Kd (commonly the equilibrium constant for the complex coming apart) at CHIP [1] (Fig 1C,D, tau proteoform binding to immobilized CHIP (1 µM coated), 3 h RT, technical triplicate, ± SD) was approximately 500 nM; on CHIP [1] (Fig 1D, replicate 1), 433 nM; on CHIP [1] (Fig 1D, replicate 2), 464 nM; at CHIP [1] (Fig 1D, replicate 3), 471 nM; on CHIP [1] (read-out: transformed Kd, Fig 1D, replicate 1) it was 433 nM; at CHIP [1] (read-out: transformed Kd, Fig 1D, replicate 2) it was 464 nM. Also, the dissociation constant (Kd) at CHIP [1] (read-out: transformed Kd, Fig 1D, replicate 3) was found to be 471 nM. Further, in the experiment with CHIP [2], the “fold better binding of CHIP than to unmodified FL tau” value is 10 fold.

B1: tauC3 S416E phosphomimetic 10-mer peptide Ac-SSTGEIDMVD-OH (peptide)
peptide: Ac-SSTGEIDMVD-OH
notes: C-terminus of tauC3 with S416 replaced by glutamic acid; numbers count on: the 2N4R-tau splice isoform; also called tauC3 S416E peptide; pS416 phosphomimetic; source: synthetic peptide
Consider B1, for which the binding result with CHIP D134A and with CHIP F131A was “binds” in each case. Besides, the inhibition constant Ki (as a rule, the dissociation constant of the complex between target and ligand, obtained from inhibition or displacement) in experiment [3] was 2410 nM.
